Active and inactive are the calls of the source. No cut-off for these calls is given here.
Assays:
HUVEC [1] = assay: Inhibition of H2O2-induced cytotoxicity in HUVEC cells assessed as cell viability at 5 to 100 umol/L incubated 4 hrs prior to H2O2 challenge measured after 12 hrs by MTT assay; type: functional, cell-based; conditions: Homo sapiens
HUVEC [2] = assay: Inhibition of H2O2-induced cytotoxicity in HUVEC cells assessed as LDH release at 50 umol/L incubated 4 hrs prior to H2O2 challenge measured after 12 hrs by LDH assay; type: functional, cell-based; conditions: Homo sapiens
HUVEC [3] = assay: Antioxidant activity against H2O2-induced lipid accumulation in HUVEC cells assessed as reduction in MDA level at 50 umol/L incubated 4 hrs prior to H2O2 challenge measured after 12 hrs; type: functional, cell-based; conditions: Homo sapiens
HUVEC [4] = assay: Antioxidant activity in HUVEC cells assessed as […] in H2O2-induced GSH activity at 50 umol/L incubated 4 hrs prior to H2O2 challenge measured after 12 hrs; type: functional, cell-based; conditions: Homo sapiens
HUVEC [5] = assay: Antioxidant activity against H2O2-induced lipid accumulation in HUVEC cells assessed as reduction in MDA level incubated 4 hrs prior to H2O2 challenge measured after 12 hrs; type: functional, cell-based; conditions: Homo sapiens
HUVEC [6] = assay: Inhibition of H2O2-induced cytotoxicity in HUVEC cells assessed as LDH release incubated 4 hrs prior to H2O2 challenge measured after 12 hrs by LDH assay; type: functional, cell-based; conditions: Homo sapiens
HUVEC [7] = assay: Antioxidant activity against in HUVEC cells assessed as […] in H2O2-induced GSH activity incubated 4 hrs prior to H2O2 challenge measured after 12 hrs; type: functional, cell-based; conditions: Homo sapiens
HUVEC [8] = assay: Antiapoptotic activity in HUVEC cells assessed as inhibition of H2O2-induced mitochondrial membrane potential reduction by JC-1 staining; type: functional, cell-based; conditions: Homo sapiens
HUVEC [9] = assay: Antiapoptotic activity in HUVEC cells assessed as reduction in H2O2-induced nuclei-shrunk by Hoechst staining; type: functional, cell-based; conditions: Homo sapiens
HUVEC [10] = assay: Antiapoptotic activity in HUVEC cells assessed as reduction in H2O2-induced nuclear condensation by hoechst staining; type: functional, cell-based; conditions: Homo sapiens
HUVEC [11] = assay: Antiapoptotic activity against H2O2-induced HUVEC cells assessed as reduction in late apoptotic cells after 4 hrs by annexin V-FITC/propidium iodide staining-based flow cytometry; type: functional, cell-based; conditions: Homo sapiens
HUVEC [12] = assay: Antiapoptotic activity against H2O2-induced HUVEC cells assessed as reduction in total apoptotic cells at 5 umol/L after 4 hrs by annexin V-FITC/propidium iodide staining-based flow cytometry; type: functional, Homo sapiens; parameters: scale not given: the % may be the effect or the level left
HUVEC [13] = assay: Antiapoptotic activity against H2O2-induced HUVEC cells assessed as reduction in total apoptotic cells at 50 umol/L after 4 hrs by annexin V-FITC/propidium iodide staining-based flow cytometry; type: functional, Homo sapiens; parameters: scale not given: the % may be the effect or the level left
HUVEC [14] = assay: Antiapoptotic activity against H2O2-induced HUVEC cells assessed as reduction in total apoptotic cells at 100 umol/L after 4 hrs by annexin V-FITC/propidium iodide staining-based flow cytometry; type: functional, Homo sapiens; parameters: scale not given: the % may be the effect or the level left
HUVEC [15] = assay: Antiapoptotic activity in HUVEC cells assessed as reduction in H2O2-induced Bax level by Western blotting relative to control; type: functional, cell-based; conditions: Homo sapiens
HUVEC [16] = assay: Antiapoptotic activity in HUVEC cells assessed as reduction in H2O2-induced p53 level by Western blotting relative to control; type: functional, cell-based; conditions: Homo sapiens
HUVEC [17] = assay: Antiapoptotic activity in HUVEC cells assessed as reduction in H2O2-induced PARP level by Western blotting relative to control; type: functional, cell-based; conditions: Homo sapiens
HUVEC [18] = assay: Antiapoptotic activity against H2O2-induced HUVEC cells assessed as increase in Bcl-2 level by Western blotting relative to control; type: functional, cell-based; conditions: Homo sapiens
HUVEC [19] = assay: Antiapoptotic activity in HUVEC cells assessed as […] in H2O2-induced pro-caspase-3 level by Western blotting; type: functional, cell-based; conditions: Homo sapiens
HUVEC [20] = assay: Antiapoptotic activity in HUVEC cells assessed as […] in H2O2-induced pro-caspase-9 level by Western blotting; type: functional, cell-based; conditions: Homo sapiens
HUVEC [21] = assay: Inhibition of H2O2-induced cytotoxicity in HUVEC cells assessed as cell viability at 5 mmol/L incubated 4 hrs prior to H2O2 challenge measured after 12 hrs by MTT assay; type: functional, cell-based; conditions: Homo sapiens
HUVEC [22] = assay: Inhibition of H2O2-induced cytotoxicity in HUVEC cells assessed as LDH release at 5 mmol/L incubated 4 hrs prior to H2O2 challenge measured after 12 hrs by LDH assay; type: functional, cell-based; conditions: Homo sapiens
HUVEC [23] = assay: Antioxidant activity against H2O2-induced lipid accumulation in HUVEC cells assessed as reduction in MDA level at 5 mmol/L incubated 4 hrs prior to H2O2 challenge measured after 12 hrs; type: functional, cell-based; conditions: Homo sapiens
HUVEC [24] = assay: Antioxidant activity in HUVEC cells assessed as […] in H2O2-induced GSH activity at 5 mmol/L incubated 4 hrs prior to H2O2 challenge measured after 12 hrs; type: functional, cell-based; conditions: Homo sapiens

**Q.** COC(=O)[C@@H](N)CSC(=O)C(Cc1ccc(OC(C)=O)c(OC(C)=O)c1)OC(C)=O (stereo partly drawn) was tested. Which inhibition (HUVEC [1]) did it give?
**A.** inactive

**Q.** With COC(=O)[C@H](CSCc1ccccc1)NC(=O)/C(=C/c1ccc2c(c1)OCO2)OC(C)=O as the compound, how does the inhibition (HUVEC [1]) read?
**A.** inactive

**Q.** For COC(=O)[C@@H](N)CSC(=O)CCc1ccc(OC(C)=O)c(OC(C)=O)c1, which Activity (HUVEC [1]) is on record?
**A.** inactive

**Q.** COC(=O)[C@H](CSC(=O)CCc1ccc(OC(C)=O)c(OC(C)=O)c1)NC(=O)OC(C)(C)C was tested. Which Activity (HUVEC [1]) did it give?
**A.** inactive

**Q.** How did the inhibition (HUVEC [1]) turn out when COC(=O)[C@@H](N)CSC(=O)C(Cc1ccc2c(c1)OCO2)OC(C)=O (stereo partly drawn) was run?
**A.** Active

**Q.** Which results are given for COC(=O)[C@H](CSCc1ccccc1)NC(=O)C(Cc1ccc(OC(C)=O)c(OC(C)=O)c1)OC(C)=O (stereo partly drawn)?
**A.** inhibition (HUVEC [1]): Active; inhibition (HUVEC [2]): Active; Activity (HUVEC [3]): Active; Activity (HUVEC [4]): Active

**Q.** What does the source list for COC(=O)[C@H](CSC(=O)/C(=C/c1ccc(OC(C)=O)c(OC(C)=O)c1)OC(C)=O)NC(=O)OC(C)(C)C?
**A.** inhibition (HUVEC [1]): Active; inhibition (HUVEC [2]): Active; Activity (HUVEC [3]): Active; Activity (HUVEC [4]): Active

**Q.** How did the Activity (HUVEC [1]) turn out when COC(=O)[C@H](CSC(=O)CCc1ccc2c(c1)OCO2)NC(=O)OC(C)(C)C was run?
**A.** inactive

**Q.** With COC(=O)[C@H](CSC(=O)C(Cc1ccc(OC(C)=O)c(OC(C)=O)c1)OC(C)=O)NC(=O)OC(C)(C)C (stereo partly drawn) as the compound, how does the inhibition (HUVEC [1]) read?
**A.** inactive

**Q.** With COC(=O)[C@@H](N)CSC(=O)/C(=C/c1ccc2c(c1)OCO2)OC(C)=O as the compound, how does the inhibition (HUVEC [1]) read?
**A.** Active

**Q.** With COC(=O)[C@H](CSCc1ccccc1)NC(=O)CCc1ccc(OC(C)=O)c(OC(C)=O)c1 as the compound, how does the inhibition (HUVEC [1]) read?
**A.** Active

**Q.** What about the inhibition (HUVEC [2]) of the same compound?
**A.** Active

**Q.** And the Activity (HUVEC [3])?
**A.** Active

**Q.** And the Activity (HUVEC [4])?
**A.** Active

**Q.** For COC(=O)[C@@H](N)CSC(=O)/C(=C/c1ccc(OC(C)=O)c(OC(C)=O)c1)OC(C)=O, which inhibition (HUVEC [1]) is on record?
**A.** Active

**Q.** Which results are given for COC(=O)[C@H](CSC(=O)/C(=C/c1ccc2c(c1)OCO2)OC(C)=O)NC(=O)OC(C)(C)C?
**A.** inhibition (HUVEC [1]): Active; inhibition (HUVEC [2]): Active; Activity (HUVEC [3]): Active; Activity (HUVEC [4]): Active

**Q.** Which results are given for COC(=O)[C@H](CSCc1ccccc1)NC(=O)/C(=C/c1ccc(OC(C)=O)c(OC(C)=O)c1)OC(C)=O?
**A.** inhibition (HUVEC [1]): Active; Activity (HUVEC [5]): Dose-dependent effect; inhibition (HUVEC [2]): Active; inhibition (HUVEC [6]): Dose-dependent effect; Activity (HUVEC [3]): Active; Activity (HUVEC [4]): Active; Activity (HUVEC [7]): Dose-dependent effect; Activity (HUVEC [8]): Dose-dependent effect; Activity (HUVEC [9]): Dose-dependent effect; Activity (HUVEC [10]): Dose-dependent effect; Activity (HUVEC [11]): Dose-dependent effect; Activity (HUVEC [12]): 20.1%; Activity (HUVEC [13]): 9%; Activity (HUVEC [14]): 5.4%; Activity (HUVEC [15]): Dose-dependent effect; Activity (HUVEC [16]): Dose-dependent effect; Activity (HUVEC [17]): Dose-dependent effect; Activity (HUVEC [18]): Dose-dependent effect; Activity (HUVEC [19]): Dose-dependent effect; Activity (HUVEC [20]): Dose-dependent effect

**Q.** With COC(=O)[C@H](CSCc1ccccc1)NC(=O)CCc1ccc2c(c1)OCO2 as the compound, how does the inhibition (HUVEC [1]) read?
**A.** inactive

**Q.** With COC(=O)[C@H](CSC(=O)C(Cc1ccc2c(c1)OCO2)OC(C)=O)NC(=O)OC(C)(C)C (stereo partly drawn) as the compound, how does the inhibition (HUVEC [1]) read?
**A.** inactive

**Q.** COC(=O)[C@@H](N)CSC(=O)CCc1ccc2c(c1)OCO2 was tested. Which Activity (HUVEC [1]) did it give?
**A.** inactive

**Q.** With COC(=O)[C@H](CSCc1ccccc1)NC(=O)C(Cc1ccc2c(c1)OCO2)OC(C)=O (stereo partly drawn) as the compound, how does the inhibition (HUVEC [1]) read?
**A.** inactive

**Q.** Which results are given for CC(=O)N[C@@H](CS)C(=O)O?
**A.** inhibition (HUVEC [21]): Active; inhibition (HUVEC [22]): Active; Activity (HUVEC [23]): Active; Activity (HUVEC [24]): Active
